The source of these data is patent publication US8420633B2 (Hoffmann-La Roche Inc., priority 2010, dated 2013).

The structures appear in SMILES notation. Counter-ions that a name gives are not always drawn.

T1 sequence (P37288 whole entry): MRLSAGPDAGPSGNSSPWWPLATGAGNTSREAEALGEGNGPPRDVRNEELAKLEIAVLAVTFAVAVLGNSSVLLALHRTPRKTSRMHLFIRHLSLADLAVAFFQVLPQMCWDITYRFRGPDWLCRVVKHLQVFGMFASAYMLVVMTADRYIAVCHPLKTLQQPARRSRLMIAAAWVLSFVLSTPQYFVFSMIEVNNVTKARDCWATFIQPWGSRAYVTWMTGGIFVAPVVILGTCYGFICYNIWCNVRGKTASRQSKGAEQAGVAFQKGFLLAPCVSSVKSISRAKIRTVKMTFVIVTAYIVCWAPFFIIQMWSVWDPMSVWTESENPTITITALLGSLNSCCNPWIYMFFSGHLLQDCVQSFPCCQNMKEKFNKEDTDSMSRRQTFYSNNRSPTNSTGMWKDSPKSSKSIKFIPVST

The first assay has as its target T1, human V1a receptor (Homo sapiens, UniProt P37288).
T1 construct: expressed in transfected cells; host or cells: HEK293 cells, transiently transfected; membranes prepared
In words: human V1a receptor binding (3H-Vasopressin SPA, HEK293 membranes).
Details: not given
The method, then:
The human V1a receptor was cloned by RT-PCR from total human liver RNA. The coding sequence was subcloned in an expression vector after sequencing to confirm the identity of the amplified sequence. […] Cell membranes were prepared from HEK293 cells transiently transfected with the expression vector and grown in 20 liter fermenters with the following protocol.
50 g of cells are resuspended in 30 ml freshly prepared ice cold Lysis buffer (50 mM HEPES, 1 mM EDTA, 10 mM magnesium dichloride adjusted to pH=7.4+complete cocktail of protease inhibitor (Roche Diagnostics)). Homogenized with Polytron for 1 min and sonicated on ice for 2×2 minutes at 80% intensity (Vibracell sonicator). The preparation is centrifuged 20 min at 500 g at 4° C., the pellet is discarded and the supernatant centrifuged 1 hour at 43,000 g at 4° C. (19,000 rpm). The pellet is resuspended in 12.5 ml Lysis buffer+12.5 ml sucrose 20% and homogenized using a Polytron for 1-2 min. The protein concentration is determined by the Bradford method and aliquots are stored at −80° C. until use. For binding studies 60 mg Yttrium silicate SPA beads (Amersham®) are mixed with an aliquot of membrane in binding buffer (50 mM Tris, 120 mM sodium chloride, 5 mM potassium chloride, 2 mM calcium dichloride, 10 mM magnesium dichloride) for 15 minutes with mixing. 50 μl of bead/membrane mixture is then added to each well of a 96 well plate, followed by 50 μl of 4 nM 3H-Vasopressin (American Radiolabeled Chemicals). For total binding measurement 100 μl of binding buffer are added to the respective wells, for non-specific binding 100 μl of 8.4 mM cold vasopressin and for compound testing 100 μl of a serial dilution of each compound in 2% dimethyl sulfoxide. The plate is incubated 1 h at room temperature, centrifuged 1 min at 1000 g and counted on a Packard Top-Count. Non-specific binding counts are subtracted from each well and data is normalized to the maximum specific binding set at 100%. To calculate an IC50 the curve is fitted using a non-linear regression model (XLfit) and the Ki is calculated using the Cheng-Prussoff equation.
For `CC(C)(C)OC(=O)N1Cc2cc(Cl)ccc2-n2c(nnc2[C@H]2CC[C@H](c3cccc4ccccc43)CC2)C1` [Example 19, trans-8-Chloro-1-(4-naphthalen-1-yl-cyclohexyl)-4H,6H-2,3,5,10b-tetraaza-benzo[e]azulene-5-carboxylic acid tert-butyl ester], the Ki is 6.03 nM. Take `CC(C)(C)OC(=O)N1Cc2cc(Cl)ccc2-n2c(nnc2[C@H]2CC[C@H](c3cccc(C#N)c3)CC2)C1` [Example 25, trans-8-Chloro-1-[4-(3-cyano-phenyl)-cyclohexyl]-4H,6H-2,3,5,10b-tetraaza-benzo[e]azulene-5-carboxylic acid tert-butyl ester]: the Ki was 7.08 nM.

The assay is the same for the next values; noted with them: 3H-Vasopressin displacement, membranes of HEK293 cells transiently transfected with human V1a; Ki from IC50 by Cheng-Prussoff; read-out: pKi (hV1a) (converted).
With `CN1Cc2cc(Cl)ccc2-n2c(nnc2[C@H]2CC[C@H](c3cccc(OC(F)(F)F)c3)CC2)C1` [Example 15, trans-8-Chloro-5-methyl-1-[4-(3-trifluoromethoxy-phenyl)-cyclohexyl]-5,6-dihydro-4H-2,3,5,10b-tetraaza-benzo[e]azulene], the Ki is 10.2 nM. `CC(C)(C)OC(=O)N1Cc2cc(Cl)ccc2-n2c(nnc2[C@H]2CC[C@H](c3cccc(F)c3Cl)CC2)C1` [Example 16, trans-8-Chloro-1-[4-(2-chloro-3-fluoro-phenyl)-cyclohexyl]-4H,6H-2,3,5,10b-tetraaza-benzo[e]azulene-5-carboxylic acid tert-butyl ester]: the Ki is 4.17 nM. As to `Fc1cccc([C@H]2CC[C@H](c3nnc4n3-c3ccc(Cl)cc3CNC4)CC2)c1Cl` [Example 17, trans-8-Chloro-1-[4-(2-chloro-3-fluoro-phenyl)-cyclohexyl]-5,6-dihydro-4H-2,3,5,10b-tetraaza-benzo[e]azulene hydrochloride], the Ki is 15.1 nM. Still for that read-out and setting: for `CN1Cc2cc(Cl)ccc2-n2c(nnc2[C@H]2CC[C@H](c3cccc(F)c3Cl)CC2)C1` [Example 18, trans-8-Chloro-1-[4-(2-chloro-3-fluoro-phenyl)-cyclohexyl]-5-methyl-5,6-dihydro-4H-2,3,5,10b-tetraaza-benzo[e]azulene] the value was 3.09 nM; for `Clc1ccc2c(c1)CNCc1nnc([C@H]3CC[C@H](c4cccc5ccccc54)CC3)n1-2` [Example 20, trans-8-Chloro-1-(4-naphthalen-1-yl-cyclohexyl)-5,6-dihydro-4H-2,3,5,10b-tetraaza-benzo[e]azulene hydrochloride], 20.4 nM.

As for `CN1Cc2cc(Cl)ccc2-n2c(nnc2[C@H]2CC[C@H](c3cccc4ccccc43)CC2)C1` [Example 21, trans-8-Chloro-5-methyl-1-(4-naphthalen-1-yl-cyclohexyl)-5,6-dihydro-4H-2,3,5,10b-tetraaza-benzo[e]azulene], the Ki was 7.59 nM.

On to `COc1ccc(F)cc1[C@H]1CC[C@H](c2nnc3n2-c2ccc(Cl)cc2CN(C(=O)OC(C)(C)C)C3)CC1` [Example 22, trans-8-Chloro-1-[4-(5-fluoro-2-methoxy-phenyl)-cyclohexyl]-4H,6H-2,3,5,10b-tetraaza-benzo[e]azulene-5-carboxylic acid tert-butyl ester], for which the Ki is 11.2 nM. On the same count and under the same terms, under `COc1ccc(F)cc1[C@H]1CC[C@H](c2nnc3n2-c2ccc(Cl)cc2CNC3)CC1` [Example 23, trans-8-Chloro-1-[4-(5-fluoro-2-methoxy-phenyl)-cyclohexyl]-5,6-dihydro-4H-2,3,5,10b-tetraaza-benzo[e]azulene hydrochloride] stands 42.7 nM; under `COc1ccc(F)cc1[C@H]1CC[C@H](c2nnc3n2-c2ccc(Cl)cc2CN(C)C3)CC1` [Example 24, trans-8-Chloro-1-[4-(5-fluoro-2-methoxy-phenyl)-cyclohexyl]-5-methyl-5,6-dihydro-4H-2,3,5,10b-tetraaza-benzo[e]azulene], 5.75 nM; under `N#Cc1cccc([C@H]2CC[C@H](c3nnc4n3-c3ccc(Cl)cc3CNC4)CC2)c1` [Example 26, trans-3-[4-(8-Chloro-5,6-dihydro-4H-2,3,5,10b-tetraaza-benzo[e]azulen-1-yl)-cyclohexyl]-benzonitrile hydrochloride], 32.4 nM. For `CN1Cc2cc(Cl)ccc2-n2c(nnc2[C@H]2CC[C@H](c3cccc(C#N)c3)CC2)C1` [Example 27, trans-3-[4-(8-Chloro-5-methyl-5,6-dihydro-4H-2,3,5,10b-tetraaza-benzo[e]azulen-1-yl)-cyclohexyl]-benzonitrile], the Ki was 2.69 nM.

For `CC(=O)N1Cc2cc(Cl)ccc2-n2c(nnc2[C@H]2CC[C@H](c3ccccc3)CC2)C1` [Example 28, trans-1-[8-Chloro-1-(4-phenyl-cyclohexyl)-4H,6H-2,3,5,10b-tetraaza-benzo[e]azulen-5-yl]-ethanone], the Ki is 1.29 nM. The same measure, in the same setting: for `CS(=O)(=O)N1Cc2cc(Cl)ccc2-n2c(nnc2[C@H]2CC[C@H](c3ccccc3)CC2)C1` [Example 29, trans-8-Chloro-5-methanesulfonyl-1-(4-phenyl-cyclohexyl)-5,6-dihydro-4H-2,3,5,10b-tetraaza-benzo[e]azulene] the value was 1.82 nM; for `CC(C)N1Cc2cc(Cl)ccc2-n2c(nnc2[C@H]2CC[C@H](c3ccccc3)CC2)C1` [Example 30, trans-8-Chloro-5-isopropyl-1-(4-phenyl-cyclohexyl)-5,6-dihydro-4H-2,3,5,10b-tetraaza-benzo[e]azulene], 1.91 nM; for `Clc1ccc2c(c1)CN(Cc1ccccn1)Cc1nnc([C@H]3CC[C@H](c4ccccc4)CC3)n1-2` [Example 31, trans-8-Chloro-1-(4-phenyl-cyclohexyl)-5-pyridin-2-ylmethyl-5,6-dihydro-4H-2,3,5,10b-tetraaza-benzo[e]azulene], 2.4 nM. On the same count and under the same terms, under `OCCN1Cc2cc(Cl)ccc2-n2c(nnc2[C@H]2CC[C@H](c3ccccc3)CC2)C1` [Example 32, trans-2-[8-Chloro-1-(4-phenyl-cyclohexyl)-4H,6H-2,3,5,10b-tetraaza-benzo[e]azulen-5-yl]-ethanol] stands 1.41 nM. Still for that read-out and setting: under `Clc1ccc2c(c1)CN(c1ccccn1)Cc1nnc([C@H]3CC[C@H](c4ccccc4)CC3)n1-2` [Example 33, trans-8-Chloro-1-(4-phenyl-cyclohexyl)-5-pyridin-2-yl-5,6-dihydro-4H-2,3,5,10b-tetraaza-benzo[e]azulene] stands 8.91 nM.
